According to patent publication US10059663B2, “Aromatic compound and use thereof” (Kyoto Pharmaceutical Industries, Ltd., priority 2013, dated 2018):

Assays:
[1] = system: Mouse bone marrow-derived mesenchymal cell line ST2 cells; test: Osteoblast differentiation test (alkaline phosphatase activity); type: cell-based; conditions: ST-2, 96 h, at 0.1 μg/mL, 4 days of culture, absorbance at 405 nm, DMSO control = 100%, read-out: alkaline phosphatase activity (increase rate in absorbance, control as 100%)
Procedure: Mouse bone marrow-derived mesenchymal cell line ST2 cells (source of supply: RIKEN) were seeded in α-MEM medium containing 10% fetal bovine serum (source of supply: GIBCO BRL Cat. No. 12000-022) in a 96 well plate at a cell density of 4×10^3 cells/0.1 mL/well, and cultured for 24 hr under the conditions of 37° C., 5% CO2. Then, each test compound was added at a final concentration of 0.001-10 μM, and the final concentration 0.1% (v/v) of DMSO was added to the control. After 4 days of culture, alkaline phosphatase (ALP) activity was measured by the following method.
The medium in the cultured 96 well plate was removed, the cells were washed with PBS buffer (KCl 0.2 g/L, KH2PO4 0.2 g/L, Na2HPO4.12H2O 2.9 g/L, NaCl 8 g/L) (100 μL/well), cell lysate (10 mM MgCl2, 2% (v/v) Triton X-100) (50 μL/well) was added, and the mixture was stirred at room temperature for 3 min. A substrate solution (50 mM diethanolamine (Wako Pure Chemical Industries, Ltd. Cat. No. 099-03112), 20 mM […] (Nacalai Tesque Cat. No. 25019-81)) (50 μL/well) was added, and the mixture was left standing at room temperature for 9 min. 1N NaOH 50 μL/well was added to discontinue the reaction, and the absorbance at 405 nm was measured by a microplate reader (Dainippon Pharmaceutical Co., Ltd.)
An increase rate (%) in the absorbance by the test compound was calculated based on the absorbance of the control as 100%, and the differentiation degree of the osteoblast was evaluated.

[2] = system: female F344 rats; test: Influence on bone density (ovariectomy, femur, DXA); type: in vivo, rat; conditions: at not more than 10 mg/kg; orally once per day, 6 or 7 days per week, 8 weeks; ovariectomized 12-week-old female F344 rats; femur by DXA
Text: 12-week-old female F344 rats (SLC) underwent ovariectomy or sham surgery under anesthesia. The test compound was suspended in 0.5% methylcellulose solution (Wako Pure Chemical Industries, Ltd. Cat. No. 133-14255) and orally administered once per day, 6 or 7 days per week, from two days after the surgery. A 0.5% methylcellulose solution was orally administered to a control group. At 8 weeks from the administration, they were euthanized by drawing the whole blood from the abdominal artery under anesthesia, and the left and right femurs were excised.
The soft tissues were removed from the excised femurs, and the bone density was measured by DXA device DCS-600R (Aloka Co., Ltd.). The bone density was evaluated for the whole femur as well as the whole divided into three equal portions of proximal end, diaphysis and distal end portion.

COc1cc(Nc2ccc(N3CC(OCCO)C3)cc2)c(NC(C)=O)cn1 [Example 1, N-(4-{4-[3-(2-hydroxyethoxy)azetidin-1-yl]phenylamino}-6-methoxypyridin-3-yl)acetamide]
activity at 0.1 µg/mL [1]: ≥ 200% | bone density [2]: significantly increased

CC(=O)c1ccc(C(N)=O)cc1Oc1ccc(OCCOC2CCOCC2)cc1 [Example 32, 4-acetyl-3-{4-[2-(tetrahydropyran-4-yloxy)ethoxy]phenoxy}benzamide]
activity at 0.1 µg/mL [1]: ≥ 200% | bone density [2]: significantly increased

CC(O)c1ccc(C(N)=O)cc1Oc1ccc(OCCOC2CCOCC2)cc1 (stereo not drawn) [Example 38, 4-(1-hydroxyethyl)-3-{4-[2-(tetrahydropyran-4-yloxy)ethoxy]phenoxy}benzamide]
activity at 0.1 µg/mL [1]: ≥ 200% | bone density [2]: significantly increased

C[C@@H](O)c1ccc(C(N)=O)cc1Oc1ccc(OCCOC2CCOCC2)cc1 [Example 43, (R)-4-(1-hydroxyethyl)-3-{4-[2-(tetrahydropyran-4-yloxy)ethoxy]phenoxy}benzamide]
activity at 0.1 µg/mL [1]: ≥ 200% | bone density [2]: significantly increased

CC(=O)c1ccc(C(N)=O)cc1Oc1ccc(OCCOC2CCOC2)cc1 (stereo not drawn) [Example 67]
activity at 0.1 µg/mL [1]: ≥ 200% | bone density [2]: significantly increased

C[C@@H](O)c1ccc(C(N)=O)cc1Oc1ccc(OCCOC2CCOC2)cc1 (stereo partly drawn) [Example 77]
activity at 0.1 µg/mL [1]: ≥ 200% | bone density [2]: significantly increased

CC(=O)c1ccc(C(N)=O)cc1Oc1ccc(N2CC(CO)C2)cc1 [Example 95]
activity at 0.1 µg/mL [1]: ≥ 200%

CC(=O)c1ccc(C(N)=O)cc1Oc1ccc(N2CC(O)C2)cc1 [Example 96]
activity at 0.1 µg/mL [1]: ≥ 200%

CC(=O)c1ccc(C(N)=O)cc1Oc1ccc(N2CCC2)cc1 [Example 97]
activity at 0.1 µg/mL [1]: ≥ 200%
